# US20240041042A1, “1-(PYRIDYL)-5-AZINYLPYRAZOLE DERIVATIVES, AND THEIR USE FOR CONTROL OF UNDESIRED PLANT GROWTH” (Bayer Aktiengesellschaft, priority 2020, published 2024)
# Read-outs that look alike come from different tables or passages of the source.
# Key:
# Assay type in all cases: in vivo
# [1] = tested on: Triticum aestivum (TRZAS); conditions: crop plant compatibility, 20 g/ha, effect vs untreated controls
# Outline: (§1)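 Greenhouse crops in sandy loam sprayed post-emergence at the one-leaf stage, 2–3 weeks after sowing, with WP or EC formulations in water plus 0.5% additive at 600 l/ha. Damage rated visually about 3 weeks later versus untreated controls (0% = like control, 100% = dead); suffixes a–c denote different doses.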
# [2] = tested on: Oryza sativa (ORYSA); conditions: crop plant compatibility
# Outline: as §1
# [3] = tested on: Zea mays (ZEAMX); conditions: for Post-emergence action against ZEAMX in % (crop plant compatibility): 20 g/ha, effect in comparison to untreated controls; for Post-emergence action against ZEAMX in %: crop plant compatibility, effect vs untreated controls
# Outline: as §1
# [4] = tested on: Viola tricolor (VIOTR); assay: Post-emergence herbicidal action against VIOTR
# Outline: (§2)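 Greenhouse plants sprayed at the one-leaf stage, 2–3 weeks after sowing, with WP or EC formulations plus 0.5% additive at 600 l/ha water. Activity rated visually after about 3 weeks versus untreated controls (100% = dead, 0% = like control), at 320 g/ha or lower.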
# [5] = tested on: Amaranthus retroflexus (AMARE); assay: Post-emergence herbicidal action against AMARE
# Outline: as §2
# [6] = tested on: Lolium rigidum (LOLRI); assay: Post-emergence herbicidal action against LOLRI
# Outline: as §2
# [7] = tested on: Matricaria inodora (MATIN); assay: Post-emergence herbicidal action against MATIN
# Outline: as §2
# [8] = tested on: Avena fatua (AVEFA); assay: Post-emergence herbicidal action against AVEFA; conditions: 320 g/ha, visual rating about 3 weeks after treatment
# Outline: as §2
# [9] = tested on: Setaria viridis (SETVI); assay: Post-emergence herbicidal action against SETVI
# Outline: as §2
# [10] = tested on: Pharbitis purpurea (PHBPU); assay: Post-emergence herbicidal action against PHBPU
# Outline: as §2
# [11] = tested on: Verconica persica (VERPE); assay: Post-emergence herbicidal action against VERPE
# Outline: as §2
# [12] = tested on: Abutilon theophrasti (ABUTH); assay: Post-emergence herbicidal action against ABUTH; conditions: visual rating about 3 weeks after treatment vs untreated controls (100% = plants have died, 0% = like control plants)
# Outline: as §2
# [13] = tested on: Echinochloa crus-galli (ECHCG); assay: Post-emergence herbicidal action against ECHCG
# Outline: as §2
# [14] = tested on: Digitaria sanguinalis (DIGSA); assay: Post-emergence herbicidal action against DIGSA; conditions: visual rating about 3 weeks after treatment
# Outline: as §2
# [15] = tested on: Alopecurus myosuroides (ALOMY); assay: Post-emergence herbicidal action against ALOMY; conditions: visual rating about 3 weeks after treatment vs untreated controls (100% = plants have died, 0% = like control plants)
# Outline: as §2
# [16] = tested on: Polygonum convolvulus (POLCO); assay: Post-emergence herbicidal action against POLCO
# Outline: as §2
# [17] = 20 g/ha, effect vs untreated controls
# [18] = 80 g/ha, effect in comparison to untreated controls
# [19] = 80 g/ha, visual rating about 3 weeks after treatment vs untreated controls (100% = plants have died, 0% = like control plants)
# [20] = 320 g/ha, visual rating about 3 weeks after treatment
SMILES,Post-emergence action against TRZAS in % [1],"Post-emergence action against ORYSA in % [2, 17]","Post-emergence action against ORYSA in % [2, 18]",Post-emergence action against ZEAMX in % (crop plant compatibility) [3],Post-emergence action against VIOTR in % ([4]; 80 g/ha),Post-emergence action against VIOTR in % ([4]; 320 g/ha),"Post-emergence action against AMARE in % [5, 20]",Post-emergence action against MATIN in % ([7]; dosage 320 g/ha),Post-emergence action against AVEFA in % [8],Post-emergence action against SETVI in % ([9]; dosage 320 g/ha),Post-emergence action against PHBPU in % ([10]; dosage 320 g/ha),"Post-emergence action against VERPE in % ([11]; 320 g/ha, VERPE)",Post-emergence action against VERPE in % ([11]; dosage 80 g/ha),Post-emergence action against ABUTH in % ([12]; 320 g/ha),Post-emergence action against ECHCG in % ([13]; dosage 80 g/ha),Post-emergence action against ECHCG in % ([13]; dosage 320 g/ha),Post-emergence action against DIGSA in % ([14]; 320 g/ha),Post-emergence action against ALOMY in % ([15]; 320 g/ha),Post-emergence action against POLCO in % ([16]; dosage 320 g/ha),Post-emergence action against PHBPU in % ([10]; dosage 80 g/ha),further results
O=C(COc1nn(-c2ncccc2F)c(-c2ccc(F)nc2)c1C1CC1)OCc1ccccc1 [Example I-287],20%,0%,20%,10%,80%,90%,80%,80%,90%,90%,80%,80%,80%,90%,90%,90%,80%,90%,,,"Post-emergence action against ZEAMX in % ([3]; 80 g/ha): 20%; Post-emergence action against AMARE in % [5, 19]: 80%; Post-emergence action against LOLRI in % ([6]; dosage 80 g/ha): 90%; Post-emergence action against LOLRI in % ([6]; dosage 320 g/ha): 90%; Post-emergence action against SETVI in % ([9]; dosage 80 g/ha): 90%; Post-emergence action against DIGSA in % ([14]; 80 g/ha): 80%"
CCOC(=O)COc1nn(-c2ccncc2F)c(-c2ccc(F)nc2)c1Br [III-29],20%,10%,20%,10%,,,,90%,,90%,90%,80%,,80%,80%,80%,90%,90%,80%,80%,Post-emergence action against LOLRI in % ([6]; dosage 320 g/ha): 80%; Post-emergence action against MATIN in % ([7]; dosage 80 g/ha): 80%
COC(=O)COc1nn(-c2ncccc2C)c(-c2cncc(F)c2)c1Br [Example I-179],0%,0%,20%,,90%,90%,90%,90%,90%,90%,90%,90%,90%,80%,90%,90%,90%,90%,90%,80%,"Post-emergence action against ZEAMX in % ([3]; 80 g/ha): 20%; Post-emergence action against AMARE in % [5, 19]: 90%; Post-emergence action against POLCO in % ([16]; dosage 80 g/ha): 90%; Post-emergence action against MATIN in % ([7]; dosage 80 g/ha): 80%; Post-emergence action against SETVI in % ([9]; dosage 80 g/ha): 90%; Post-emergence action against ABUTH in % ([12]; 80 g/ha): 80%; Post-emergence action against DIGSA in % ([14]; 80 g/ha): 90%"
Cc1ncccc1-n1nc(OCC(=O)OCC2CCCO2)c(Br)c1-c1cncc(F)c1 (stereo not drawn) [II-43],10%,0%,0%,0%,90%,90%,90%,80%,90%,90%,90%,90%,90%,80%,,90%,80%,100%,80%,80%,"Post-emergence action against ORYSA in % ([2]; 320 g/ha, effect in comparison to untreated controls): 0%; Post-emergence action against ZEAMX in % ([3]; 80 g/ha): 20%"
CCOC(=O)COc1nn(-c2cccnc2C)c(-c2cncc(F)c2)c1Br [II-45],0%,0%,0%,,90%,90%,80%,90%,90%,90%,90%,90%,90%,80%,,90%,80%,90%,90%,,Post-emergence action against POLCO in % ([16]; dosage 80 g/ha): 80%
Cc1cccnc1-n1nc(OCC(=O)O)c(Cl)c1-c1cncc(F)c1 [Example I-182],10%,10%,,10%,80%,90%,90%,90%,90%,80%,90%,90%,80%,80%,90%,90%,100%,80%,90%,90%,"Post-emergence action against ZEAMX in % ([3]; 80 g/ha): 20%; Post-emergence action against AMARE in % [5, 19]: 80%; Post-emergence action against POLCO in % ([16]; dosage 80 g/ha): 80%; Post-emergence action against MATIN in % ([7]; dosage 80 g/ha): 80%; Post-emergence action against SETVI in % ([9]; dosage 80 g/ha): 80%; Post-emergence action against ABUTH in % ([12]; 80 g/ha): 80%; Post-emergence action against DIGSA in % ([14]; 80 g/ha): 90%"
COC(=O)COc1nn(-c2ncccc2F)c(-c2ccnc(F)c2)c1Br [Example I-130],20%,0%,,0%,90%,90%,90%,80%,90%,,80%,80%,80%,90%,,90%,90%,90%,80%,,"Post-emergence action against ZEAMX in % ([3]; 80 g/ha): 0%; Post-emergence action against ZEAMX in % ([3]; 320 g/ha): 20%; Post-emergence action against AMARE in % [5, 19]: 80%; Post-emergence action against LOLRI in % ([6]; dosage 320 g/ha): 90%; Post-emergence action against ABUTH in % ([12]; 80 g/ha): 80%; Post-emergence action against DIGSA in % ([14]; 80 g/ha): 80%"
CCOC(=O)[C@@H](C)Oc1nn(-c2ncccc2F)c(-c2cncc(F)c2)c1Cl [Example I-145],20%,0%,,,90%,90%,80%,90%,90%,90%,90%,90%,90%,90%,90%,90%,90%,90%,90%,90%,"Post-emergence action against AMARE in % [5, 19]: 80%; Post-emergence action against LOLRI in % ([6]; dosage 80 g/ha): 90%; Post-emergence action against LOLRI in % ([6]; dosage 320 g/ha): 90%; Post-emergence action against POLCO in % ([16]; dosage 80 g/ha): 90%; Post-emergence action against MATIN in % ([7]; dosage 80 g/ha): 80%; Post-emergence action against SETVI in % ([9]; dosage 80 g/ha): 90%; Post-emergence action against ABUTH in % ([12]; 80 g/ha): 90%; Post-emergence action against ALOMY in % ([15]; 80 g/ha): 80%"
C[C@@H](Oc1nn(-c2ncccc2F)c(-c2cncc(F)c2)c1Cl)C(=O)O [Example I-165],20%,0%,,,90%,90%,80%,90%,90%,90%,90%,90%,90%,90%,90%,90%,90%,100%,90%,80%,Post-emergence action against LOLRI in % ([6]; dosage 320 g/ha): 100%; Post-emergence action against POLCO in % ([16]; dosage 80 g/ha): 80%; Post-emergence action against MATIN in % ([7]; dosage 80 g/ha): 80%; Post-emergence action against SETVI in % ([9]; dosage 80 g/ha): 90%; Post-emergence action against ABUTH in % ([12]; 80 g/ha): 90%; Post-emergence action against DIGSA in % ([14]; 80 g/ha): 90%
